Results reported in patent publication US20080145313A1, “Compositions and Methods for the Treatment and Prevention of Neoplastic Disorders” (Genesis Research & Development Corporation Limited, priority 2006, published 2008).
Marks after values point to notes of the source that are not given here.

How the values were obtained:
wt HCT-116 cells = assay: Growth inhibition of siRNA-transfected wt HCT-116 cells, SYBR Green I DNA content; format: cell-based; conditions: standardized against control siRNA
Procedure: (§1) A549 cells (human lung cancer cell line; ATCC No. CCL-185), SK-MeI-5 cells (human melanoma cell line; ATCC No. HTB-70), MCF-7 cells (human adenocarcinoma cell line; ATCC No. HTB-22), HCT-116 cells (colorectal carcinoma; ATCC CCL-247) and HCT-116 p53 null cells (derived from ATCC No. CCL-247; Bunz et al., Science 282:1497-1501, 1998) were cultured in RPMI 1640 medium with 10% v/v heat-inactivated fetal calf serum (FCS). Cells were seeded at a density of 5×10^4 cells/cm^2 in multi-well tissue culture plates. Sequences of Stealth™ siRNA duplexes (Invitrogen) targeting human ribonucleotide reductase subunit 1 (SEQ ID NO: 22) and subunit 2 (SEQ ID NO; 38) are given in SEQ ID NO: 4830-4832 (DNA), and SEQ ID NO: 5136-5138 (RNA) for RRM1, and SEQ ID NO: 5306-5308 (DNA), and SEQ ID NO: 5303-5305 (RNA) for RRM2. siRNAs were transfected at different concentrations into cells using Lipofectamine™ RNAiMAX transfection reagent (Invitrogen). Non-specific siRNA (SEQ ID NO: 4804 and 4805 (DNA), and SEQ ID NO: 5301 and 5302 (RNA)) were used as controls. The cellular DNA content was measured using a SYBR Green I-based fluorometric assay at 24, 48, 72 and 96 hours after transfection (120 hours for the MCF-7 cells), as follows. At the indicated time points following reverse transfection, cells were harvested and frozen at −80° C. overnight. Cells were thawed and cell lysis buffer (phosphate-buffered saline (PBS) containing 1% Triton X-100, pH 7) and SYBR Green I (1:10^5 V/V; Invitrogen) was added to the wells and incubated overnight in the dark at 4° C.
(§2) The following day, cell lysates were mixed thoroughly, and DNA fluorescence was measured with a Wallac Victor^2 plate reader (Turku, Finland) set at an excitation frequency of 485 nm and measuring emission at 535 nm.
(§3) To determine the effect of the p53-status of cells on RRM1 and RRM2 knockdown, growth inhibition of wild type (wt) HCT-116 and p53 null HCT-116 cells by RRM1 and RRM2-targeted siRNA were determined. Cells were reverse transfected with 1.0 and 10 nM RRM1-3 (SEQ ID NO: 4832 (DNA), and SEQ ID NO: 5138 (RNA)), 1.0 and 10 nM RRM2-2 (SEQ ID NO: 5307 (DNA), and SEQ ID NO: 5304 (RNA)) or 10 nM control siRNA (SEQ ID NO: 4804 (DNA), and SEQ ID NO: 5301 (RNA)), and growth measured daily for up to 4 days post transfection.
(§4) siRNA-mediated RNAi was also determined on a panel of different cell lines. A549, SK-MeI-5, wt HCT-116, HCT-116−/−p53 and MCF-7 cells were transfected with 10 nM siRNAs targeting YBX-1 and growth inhibition determined as described above. The YBX1 siRNAs are given in SEQ ID NO: 4981 to 4985 (DNA) and SEQ ID NO: 5276-5280 (RNA). A non-specific siRNA (SEQ ID NO: 4804 (DNA) and SEQ ID NO: 5301 (RNA)) was used as control. Growth inhibition by the siRNAs, given in Table 14, was standardized against the inhibition obtained with the control siRNA.
HCT-116 and A549 cells were transfected with 0.1, 1.0 and 10 nM siRNA targeting TYMS and DHFR (SEQ ID NO: 4833 to 4838 (DNA), and SEQ ID NO: 5139-5144 (RNA)) using Lipofectamine™ RNAiMAX and incubated for 96 h, in either normal fetal calf serum or serum dialyzed to remove low molecular weight molecules (cut-off 10 kDa). Growth of cells was measured by measuring the total DNA content per well using the SYBR Green assay as described above, and values are given as the percentage of the averaged control values. […] Inhibition increased with increasing siRNA concentration, which was not observed with a non-specific control siRNA. […]

HCT-116 p53 null cells = assay: Growth inhibition of siRNA-transfected p53 null HCT-116 cells, SYBR Green I DNA content; format: cell-based; conditions: for growth inhibition, HCT-116 −/−p53 cells: standardized against control siRNA
Procedure: as §1, §2, §3, §4

[1] = tested on: target transcript mRNA in A549 cells; assay: Level of mRNA of target transcript in A549 cells by quantitative RT-PCR (Tables 12 and 13); format: cell-based, human; conditions: 24 h post-transfection; for mRNA knockdown of transporter gene target transcript, 10 nM: 10 nM siRNA
Outline: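 A549 cells were transfected with siRNA at 0.1, 1.0 and 10 nM. RNA was extracted 24 h later, reverse-transcribed with random primers, and target mRNA quantified by SYBR Green qRT-PCR. Values were normalised to housekeeping genes HPRT and Lamin.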

Substance	growth inhibition, wt HCT-116 cells (wt HCT-116 cells; 1 nM siRNA)	growth inhibition, HCT-116 −/−p53 cells (HCT-116 p53 null cells; 1 nM siRNA)	mRNA knockdown of transporter gene target transcript, 0.1 nM ([1]; 0.1 nM siRNA)	mRNA knockdown of transporter gene target transcript, 1 nM ([1]; 1 nM siRNA)	mRNA knockdown of transporter gene target transcript, 10 nM [1]	further results
SEQ ID NO: 4985: siRNA targeting YBX1 (chain 1 CAGCCTAGAGAGGACGGCAATGAAG; chain 2 CAGCCUAGAGAGGACGGCAAUGAAG; chemistry not given here; one strand in two spellings)	−* (No inhibition)	−* (No inhibition)	–	–	–	–
SEQ ID NO: 5307: Stealth siRNA targeting RRM2 (chain 1 AATTCATCCCAATGAGCTTCACAGG; chain 2 AAUUCAUCCCAAUGAGCUUCACAGG; Stealth siRNA, chemical pattern not given here; one strand in two spellings)	–	–	–	–	–	growth inhibition, p53 null HCT-116 (HCT-116 p53 null cells; 1.0 and 10 nM siRNA, up to 4 days, compared with p53 wt): more growth inhibitory; mRNA knockdown of energy and metabolism gene target transcript, 0.1 nM ([1]; 0.1 nM siRNA): + (50-70% mRNA knockdown); mRNA knockdown of energy and metabolism gene target transcript, 1 nM ([1]; 1 nM siRNA): ++ (70-90% mRNA knockdown)
SEQ ID NO: 4932: siRNA targeting SLC29A1 (ENT1) (chain 1 TGATAAAGTAGCCGAAGGCACTTTC; chain 2 UGAUAAAGUAGCCGAAGGCACUUUC; chemistry not given here; one strand in two spellings)	–	–	++ (70-90% mRNA knockdown)	++ (70-90% mRNA knockdown)	++ (70-90% mRNA knockdown)	–
SEQ ID NO: 4982: siRNA targeting YBX1 (chain 1 TTTGCTGGTAATTGCGTGGAGGACC; chain 2 UUUGCUGGUAAUUGCGUGGAGGACC; chemistry not given here; one strand in two spellings)	–	–	–	–	–	growth inhibition, wt HCT-116 cells (wt HCT-116 cells; 10 nM siRNA): +++ (At least 70% inhibition); growth inhibition, HCT-116 −/−p53 cells (HCT-116 p53 null cells; 10 nM siRNA): +++ (At least 70% inhibition)
SEQ ID NO: 4984: siRNA targeting YBX1 (chain 1 CAAGGTAGACCAGTGAGGCAGAATA; chain 2 CAAGGUAGACCAGUGAGGCAGAAUA; chemistry not given here; one strand in two spellings)	+* (At least 20% inhibition)	+* (At least 20% inhibition)	–	–	–	–
SEQ ID NO: 4924: siRNA targeting SLC16A1 (MCT1) (chain 1 TTAGACTTATCTTTCCCTGCCTTGG; chain 2 UUAGACUUAUCUUUCCCUGCCUUGG; chemistry not given here; one strand in two spellings)	–	–	+ (50-70% mRNA knockdown)	++ (70-90% mRNA knockdown)	++ (70-90% mRNA knockdown)	–
